How the values were obtained:
[1] = Microsomal stability assay, human liver microsomes (HLM); type: in vitro ADME; details: human liver microsomes 0.5 mg/mL, 1 uM substrate, 2 mM NADPH, 37° C., referenced against time zero control
Experimental: (§1) Microsomal Stability Assay.
(§2) Compounds were incubated at 37° C. and shaken for 30 minutes in a phosphate buffered solution with either rat or human liver microsomes and the cofactor NADPH. A time zero control was similarly prepared, however with NADPH excluded. The final incubation concentrations were 1 uM substrate (0.2% DMSO), 0.5 mg/mL liver microsome, 2 mM NADPH, and 0.1 M phosphate. Reactions were quenched and proteins precipitated with the addition of 2 volume equivalents of ice cold acetonitrile containing an internal standard. Following a centrifugation step, aliquots from the quenched incubations were further diluted with 4 volume equivalents of a 50% aqueous methanol solution and then subjected to LC/MS/MS analysis for quantitation of parent compound. Microsome stability values were calculated as the percent of substrate remaining after 30 minutes referenced against the time zero control.
(§3) Microsomal stability in rat and human liver microsomes were determined for selected compounds of the present invention using the above assay. Table 4 provides the human liver microsomes (“HLM”) and rat liver microsomes (“RLM”) stability data as the percent of compound remaining after 30 minutes referenced against the time zero control.

human Nav1.8 = human Nav1.8 (Homo sapiens (Human), UniProt Q9Y5Y9); experiment: E-VIPR optical membrane potential assay with electrical stimulation; type: cell-based; details: HEK cells expressing human Nav1.8
Chain of human Nav1.8 (Q9Y5Y9 whole entry): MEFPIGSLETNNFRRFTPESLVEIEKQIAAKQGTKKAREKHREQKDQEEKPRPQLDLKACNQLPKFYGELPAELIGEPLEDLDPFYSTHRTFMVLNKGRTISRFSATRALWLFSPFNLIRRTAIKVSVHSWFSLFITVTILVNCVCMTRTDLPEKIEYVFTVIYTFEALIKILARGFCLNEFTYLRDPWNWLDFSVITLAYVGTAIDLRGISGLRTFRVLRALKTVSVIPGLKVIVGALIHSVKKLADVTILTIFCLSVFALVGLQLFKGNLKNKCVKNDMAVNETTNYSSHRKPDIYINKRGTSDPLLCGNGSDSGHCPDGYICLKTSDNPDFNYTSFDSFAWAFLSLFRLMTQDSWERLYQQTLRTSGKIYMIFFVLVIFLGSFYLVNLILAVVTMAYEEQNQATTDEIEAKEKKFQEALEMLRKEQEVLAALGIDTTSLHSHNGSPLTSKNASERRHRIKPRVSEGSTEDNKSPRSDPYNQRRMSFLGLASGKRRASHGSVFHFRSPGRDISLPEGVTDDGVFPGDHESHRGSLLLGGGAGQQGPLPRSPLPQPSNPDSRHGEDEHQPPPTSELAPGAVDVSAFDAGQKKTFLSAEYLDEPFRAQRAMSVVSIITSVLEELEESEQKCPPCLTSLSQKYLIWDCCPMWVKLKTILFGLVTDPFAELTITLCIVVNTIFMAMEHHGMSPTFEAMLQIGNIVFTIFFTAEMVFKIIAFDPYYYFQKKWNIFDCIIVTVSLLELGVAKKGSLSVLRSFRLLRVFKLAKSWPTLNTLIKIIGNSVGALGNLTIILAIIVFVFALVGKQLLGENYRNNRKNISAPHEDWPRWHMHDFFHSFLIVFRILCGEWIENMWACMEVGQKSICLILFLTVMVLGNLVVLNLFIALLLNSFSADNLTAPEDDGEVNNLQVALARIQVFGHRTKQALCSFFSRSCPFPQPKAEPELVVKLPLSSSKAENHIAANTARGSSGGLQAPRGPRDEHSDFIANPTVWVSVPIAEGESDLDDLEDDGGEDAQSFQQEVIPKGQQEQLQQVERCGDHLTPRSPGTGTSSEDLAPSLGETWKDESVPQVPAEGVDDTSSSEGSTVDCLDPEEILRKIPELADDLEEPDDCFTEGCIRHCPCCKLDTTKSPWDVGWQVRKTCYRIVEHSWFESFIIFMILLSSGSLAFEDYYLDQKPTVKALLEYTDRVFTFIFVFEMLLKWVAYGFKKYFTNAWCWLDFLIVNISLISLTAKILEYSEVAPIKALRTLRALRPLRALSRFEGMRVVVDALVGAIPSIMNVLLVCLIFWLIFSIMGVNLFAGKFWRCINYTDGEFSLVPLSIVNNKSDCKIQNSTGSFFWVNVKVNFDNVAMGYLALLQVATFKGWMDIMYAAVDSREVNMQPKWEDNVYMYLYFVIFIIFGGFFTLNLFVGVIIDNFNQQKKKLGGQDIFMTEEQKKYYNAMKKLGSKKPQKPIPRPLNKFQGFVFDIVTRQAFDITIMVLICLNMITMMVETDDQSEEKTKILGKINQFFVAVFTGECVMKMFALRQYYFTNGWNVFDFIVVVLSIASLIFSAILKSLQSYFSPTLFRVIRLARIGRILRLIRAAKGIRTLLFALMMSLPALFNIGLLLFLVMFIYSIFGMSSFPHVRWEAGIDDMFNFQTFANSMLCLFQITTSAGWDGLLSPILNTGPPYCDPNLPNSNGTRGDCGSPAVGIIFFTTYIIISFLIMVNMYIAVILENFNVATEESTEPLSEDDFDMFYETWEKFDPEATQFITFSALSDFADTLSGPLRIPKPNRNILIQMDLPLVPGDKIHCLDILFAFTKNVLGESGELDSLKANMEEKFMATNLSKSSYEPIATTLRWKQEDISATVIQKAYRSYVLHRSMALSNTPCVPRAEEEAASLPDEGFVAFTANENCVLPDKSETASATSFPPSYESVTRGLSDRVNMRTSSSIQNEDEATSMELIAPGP

[2] = Microsomal stability assay, rat liver microsomes (RLM); type: in vitro ADME; details: rat liver microsomes 0.5 mg/mL, 1 uM substrate, 2 mM NADPH, 37° C., referenced against time zero control
Experimental: as §1, §2, §3

Structure (SMILES)	HLM (% remaining @ 30 minutes) [1] [%]	IC50 (human Nav1.8) [nM]	RLM (% remaining @ 30 minutes) [2] [%]
Cc1ccccc1Oc1ccc(C(F)(F)F)cc1C(=O)Nc1cc[nH]c(=O)c1 [Compound 28, N-(2-oxo-1,2-dihydropyridin-4-yl)-2-(o-tolyloxy)-5-(trifluoromethyl)benzamide]	79	44	70
O=C(Nc1cc[nH]c(=O)c1)c1cc(C(F)(F)F)ccc1Oc1ccc(F)cc1Cl [Compound 29, 2-(2-chloro-4-fluorophenoxy)-N-(2-oxo-1,2-dihydropyridin-4-yl)-5-(trifluoromethyl)benzamide]	107	28	107
COc1cc(F)ccc1Oc1ccc(C(F)(F)F)cc1C(=O)Nc1cc[nH]c(=O)c1 [Compound 30, 2-(4-fluoro-2-methoxyphenoxy)-N-(2-oxo-1,2-dihydropyridin-4-yl)-5-(trifluoromethyl)benzamide]	76	11	78
Cc1cc(F)ccc1Oc1ccc(C(F)(F)F)cc1C(=O)Nc1cc[nH]c(=O)c1 [Compound 31, 2-(4-fluoro-2-methylphenoxy)-N-(2-oxo-1,2-dihydropyridin-4-yl)-5-(trifluoromethyl)benzamide]	92	17	91
O=C(Nc1cc[nH]c(=O)c1)c1cc(OC(F)(F)F)ccc1Oc1ccc(F)cc1F [Compound 33, 2-(2,4-difluorophenoxy)-N-(2-oxo-1,2-dihydropyridin-4-yl)-5-(trifluoromethoxy)benzamide]	100	95	110

Second part, the compound after the results:

HLM (% remaining @ 30 minutes) [1] [%]	IC50 (human Nav1.8) [nM]	RLM (% remaining @ 30 minutes) [2] [%]	Structure (SMILES)
100	51	97	O=C(Nc1cc[nH]c(=O)c1)c1cc(OC(F)(F)F)ccc1Oc1ccc(F)cc1Cl [Compound 37, 2-(2-chloro-4-fluorophenoxy)-N-(2-oxo-1,2-dihydropyridin-4-yl)-5-(trifluoromethoxy)benzamide]
93	20	84	CCOc1ccc(Oc2ccc(C(F)(F)F)cc2C(=O)Nc2cc[nH]c(=O)c2)cc1 [Compound 44, 2-(4-ethoxyphenoxy)-N-(2-oxo-1,2-dihydropyridin-4-yl)-5-(trifluoromethyl)benzamide]
100	37	106	O=C(Nc1cc[nH]c(=O)c1)c1cc(Cl)ccc1Oc1ccc(F)cc1Cl [Compound 66, 5-chloro-2-(2-chloro-4-fluorophenoxy)-N-(2-oxo-1,2-dihydropyridin-4-yl)benzamide]
98	30	72	Cc1cc(F)ccc1Oc1ccc(Cl)cc1C(=O)Nc1cc[nH]c(=O)c1 [Compound 68, 5-chloro-2-(4-fluoro-2-methylphenoxy)-N-(2-oxo-1,2-dihydropyridin-4-yl)benzamide]
100	13	95.5	O=C(Nc1cc[nH]c(=O)c1)c1cc(C(F)(F)F)ccc1Oc1ccc(OC(F)(F)F)cc1 [Compound 72, N-(2-oxo-1,2-dihydropyridin-4-yl)-2-(4-(trifluoromethoxy)phenoxy)-5-(trifluoromethyl)benzamide]
90	51	95	O=C(Nc1cc[nH]c(=O)c1)c1cc(C(F)(F)F)ccc1Oc1ccccc1OC(F)(F)F [Compound 75, N-(2-oxo-1,2-dihydropyridin-4-yl)-2-(2-(trifluoromethoxy)phenoxy)-5-(trifluoromethyl)benzamide]
97	54	93	O=C(Nc1cc[nH]c(=O)c1)c1cc(C(F)(F)F)ccc1Oc1ccccc1OC(F)F [Compound 76, 2-(2-(difluoromethoxy)phenoxy)-N-(2-oxo-1,2-dihydropyridin-4-yl)-5-(trifluoromethyl)benzamide]

From patent US9051270B2, “Pyridone amides as modulators of sodium channels” (Vertex Pharmaceuticals Incorporated, priority 2013, dated 2015)
